From article PMC6769917, “Glycan Binding Profiling of Jacalin-Related Lectins from the Pteria Penguin Pearl Shell” (International Journal of Molecular Sciences, 2019)

Target: T1, PPL4 (Pteria penguin, UniProt B6F0T8+B6F0T9)
T1 construct: gene PPL4-a; native, purified from mantle secretory fluid; mature 148 residues per subunit, 16 kDa; disulfide-linked heterodimer 32 kDa (head-to-head, N-terminal bond); N-termini […]; (alpha), […]; (beta)
Experiment: hemagglutination inhibition, rabbit erythrocytes, purified lectin
Assay type: cell-based
Details: 0.15 M NaCl; hemagglutination titer 2^−3; 2% rabbit erythrocytes
Excerpt: hemagglutination inhibition, rabbit erythrocytes, purified lectin on PPL4

T1 sequence (B6F0T8 entry or part of it): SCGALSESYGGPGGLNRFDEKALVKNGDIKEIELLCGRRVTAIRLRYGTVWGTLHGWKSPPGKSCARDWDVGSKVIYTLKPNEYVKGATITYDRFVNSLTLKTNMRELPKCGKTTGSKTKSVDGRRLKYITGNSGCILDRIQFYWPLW
T1 sequence (B6F0T9 entry or part of it): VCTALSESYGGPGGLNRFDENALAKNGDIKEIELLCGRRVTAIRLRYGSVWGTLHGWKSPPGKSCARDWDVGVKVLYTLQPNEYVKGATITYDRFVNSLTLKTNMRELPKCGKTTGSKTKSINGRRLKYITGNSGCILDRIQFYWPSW

| Compound | PPL3 [mM] | PPL4 [mM] |
| --- | --- | --- |
| OCC1(O)OC[C@@H](O)[C@@H](O)[C@@H]1O (stereo partly drawn) [D-Fructose] | 50 | – |
| OC[C@H]1O[C@H](OC[C@H]2OC(O)[C@H](O)[C@@H](O)[C@@H]2O)[C@H](O)[C@@H](O)[C@@H]1O (some centres unmarked) [Isomaltose] | – | > 200 |
| CC(=O)N[C@H]1C(O)O[C@H](CO)[C@@H](O)[C@@H]1O (stereo partly drawn) [N-Acetyl-D-glucosamine] | – | 6.25 |

More lines, now with the values ahead:

| PPL3 [mM] | PPL4 [mM] | Compound |
| --- | --- | --- |
| – | 100 | OC[C@H]1O[C@H](O[C@H]2C(O)O[C@H](CO)[C@@H](O)[C@@H]2O)[C@H](O)[C@@H](O)[C@@H]1O (some centres unmarked) [Kojibiose] |
| – | 100 | OC[C@H]1O[C@H](O[C@H]2O[C@H](CO)[C@@H](O)[C@H](O)[C@H]2O)[C@H](O)[C@@H](O)[C@@H]1O [Trehalose] |
